In patent EP4800004A1, “ARYLALKYLAMINE COMPOUND, AND PREPARATION METHOD THEREFOR AND USE THEREOF” (Renhe Yikang Group Co., Ltd., priority 2024, dated 2025):

Columns and labels:
human CaSR = target: T1, human CaSR (Homo sapiens, UniProt P41180); test: In vitro CaSR conformational (allosteric) activation, intracellular Ca2+ change in hCaSR-CHO cells (Fluo-4 NW, FLIPR); format: cell-based; settings: change in intracellular Ca2+ fluorescence intensity
T1 construct: expressed in transfected cells
T1 sequence (P41180 20-1078): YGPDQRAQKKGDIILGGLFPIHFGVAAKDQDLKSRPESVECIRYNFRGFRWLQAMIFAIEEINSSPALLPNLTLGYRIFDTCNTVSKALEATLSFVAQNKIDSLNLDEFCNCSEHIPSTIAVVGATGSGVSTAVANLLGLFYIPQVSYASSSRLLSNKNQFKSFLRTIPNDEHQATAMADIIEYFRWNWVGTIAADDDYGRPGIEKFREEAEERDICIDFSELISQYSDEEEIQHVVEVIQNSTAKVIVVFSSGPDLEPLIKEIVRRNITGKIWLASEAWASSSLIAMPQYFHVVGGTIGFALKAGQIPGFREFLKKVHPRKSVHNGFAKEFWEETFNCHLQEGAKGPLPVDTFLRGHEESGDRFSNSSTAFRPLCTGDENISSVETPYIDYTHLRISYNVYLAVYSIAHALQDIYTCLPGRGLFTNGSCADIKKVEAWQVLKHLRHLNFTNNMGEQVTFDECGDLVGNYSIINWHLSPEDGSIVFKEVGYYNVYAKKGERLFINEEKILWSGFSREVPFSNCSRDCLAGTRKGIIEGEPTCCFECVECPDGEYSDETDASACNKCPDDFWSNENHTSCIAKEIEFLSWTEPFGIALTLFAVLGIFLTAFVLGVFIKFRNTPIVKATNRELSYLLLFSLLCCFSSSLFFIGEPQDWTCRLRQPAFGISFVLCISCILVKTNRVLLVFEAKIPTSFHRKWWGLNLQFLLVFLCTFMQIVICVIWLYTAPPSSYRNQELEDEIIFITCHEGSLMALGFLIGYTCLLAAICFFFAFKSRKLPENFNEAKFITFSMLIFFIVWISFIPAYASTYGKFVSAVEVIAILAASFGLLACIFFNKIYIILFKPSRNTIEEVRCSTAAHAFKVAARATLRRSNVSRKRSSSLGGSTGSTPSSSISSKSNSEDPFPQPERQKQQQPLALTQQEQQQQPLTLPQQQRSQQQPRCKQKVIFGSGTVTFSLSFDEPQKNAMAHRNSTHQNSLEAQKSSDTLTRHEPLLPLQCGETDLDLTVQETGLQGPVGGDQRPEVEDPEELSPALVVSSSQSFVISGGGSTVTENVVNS
Method: The CaSR is a member of family C of G protein-coupled receptors (GPCR). Upon activation by extracellular Ca^2+ or specific compounds, CaSR triggers an increase in intracellular Ca^2+ concentration. To evaluate the effect of compounds on the allosteric activation of CaSR, a CHO cell line stably transfected with human CaSR (hCaSR-CHO) was utilized. Changes in intracellular Ca^2+ concentration were measured as a key indicator to assess the conformational activation of CaSR.
• 1. Preparation Before Plate Spreading: Twelve hours prior to cell spreading, a 384-well cell culture plate was coated with 0.1 mg/mL polylysine. • 2. Cell Spreading: Digested hCaSR-CHO cells were resuspended in complete medium, counted using a cell counter, and adjusted to a density of 5 × 10^5 cells/mL. A volume of 25 µL of cell suspension was inoculated into each well. After inoculation, the cells were incubated at 37 °C in a 5% CO2 incubator for 18 h. • 3. Preparation of Compound Test Solution: The test compounds were diluted to the required concentrations (10 µM, 2 µM, 400 nM, 80 nM, 16 nM, 3.2 nM, and 0.64 nM) and added to a 384-well spiked plate. Since the cell culture plate already contained 25 µL of Fluo-4 NW assay reagent and the instrument was set to deliver 20 µL of the system, the compound concentrations in the spiked plate were 2.25 times the actual assay concentrations. For example, […]. • 4. Preparation of Assay Reagents: According to the instructions of the Fluo-4 NW Calcium Assay Kit (Thermo, F36206), 1 mL of assay buffer was added to Component B to prepare a 250 mM probenecid solution. 100 µL of the probenecid solution was added to 10 mL of assay buffer and mixed thoroughly. Component A was added to the mixture to prepare a 1X dye loading solution. • 5. Fluorescent Dye Addition: The complete culture medium was discarded, and 25 µL of the 1X dye loading solution was added to the 384-well plate using a Multidrop automatic dispenser. The plate was incubated at 37 °C for 30 min in the dark, then transferred to room temperature for an additional 30 min. The plate was transferred to the FLIPER Tetra instrument (Molecular Devices). • 6. Data Acquisition: After adding 20 µL of the compound test solution, the excitation wavelength was set to 470-495 nm, and the emission was detected at 515-575 nm. The instrument's quality control board was used to ensure no errors before initiating detection. The detection duration was 660 seconds, and the raw data were exported at the end of the reading. • 7. Data Processing: The change in fluorescence intensity, representing intracellular calcium signals, was calculated by subtracting the minimum fluorescence value (average of 14-21 seconds) from the maximum fluorescence value (average of 40-80 seconds) after compound addition. Using GraphPad Prism 8.0, the EC50 values of individual compounds were determined by plotting the compound concentration on the x-axis and the change in fluorescence intensity on the y-axis.

[1] = test system: parathyroid hormone (PTH); test: In vivo inhibition of blood PTH concentration in five-sixths nephrectomy hyperparathyroidism model rats (ELISA); settings: PTH reduction at 1 hour post-administration compared with baseline PTH concentration at 0 hour; single dose by oral gavage; male SD rats, five-sixths nephrectomy plus special diet
Excerpt: Male SD rat models of hyperparathyroidism were constructed by five-sixths nephrectomy plus a special diet. Blood parathyroid hormone (PTH) level was used as the endpoint. ELISA was applied to determine the changes in plasma PTH concentration following compound treatment, thereby assessing the in vivo activity of the compound.
• 1. Model Construction: Specific pathogen-free (SPF)-grade male SD rats aged 7-8 weeks were used. The rats were acclimatized with normal feed for 1 week. Two-thirds of the left kidney was removed, and the rats were allowed to recover with normal feed for 1 week. Subsequently, the right kidney was removed, and the rats were allowed to recover with normal feed for an additional week. The rats were then fed a special diet (0.5% calcium and 1.2% total phosphorus) for 2 weeks. • 2. Detection and Grouping: Approximately 300 µL of blood was collected from the tail vein into a coagulation-promoting tube, left at room temperature for 30 minutes, and centrifuged at 12,000 rpm for 3 minutes to obtain serum samples. The concentration of intact PTH (1-84) in the serum was detected using the MicroVue Intact PTH EIA-96 Test (Quidel, catalog No. 60-2500). The rats were grouped based on their PTH concentration levels, ensuring that the mean PTH concentration in each group was approximately the same. • 3. Administration and Activity Testing: A single dose of the compound was administered by oral gavage. Blood samples were collected before and after administration, and serum was obtained using the method described in step 2. PTH levels were measured using ELISA.

[2] = Rat liver microsome stability test; format: in vitro ADME; settings: rat liver microsomes, PBS pH 7.4, 37 °C, maximum incubation time 60 minutes
Method: Rat liver microsomes at a defined concentration, testosterone (positive control), tolbutamide (internal standard), the test compounds, and PBS (pH 7.4) were incubated at 37 °C. The reaction was quenched with methanol at 0, 5, 10, 20, 30, and 60 min, respectively. The samples were pretreated and analyzed using LC-MS. Data processing involved plotting the ratio of the peak area of the test compound to that of the internal standard (y-axis) against time (x-axis). The half-life (t1/2) was calculated from the data. Table 3. Stability data of compounds in rat liver microsomes.

[3] = Pharmacokinetic study in SD rats; format: in vivo; settings: Sprague-Dawley, rat, plasma, male SD rats, single dose via oral gavage; for bioavailability: relative to Evocalcet (100)
Method: Animal Information: Male Sprague-Dawley (SD) rats, aged 7-8 weeks, were used. Each group consisted of 3-5 rats.
Dosing Information: The rats were fasted for more than 12 hours prior to administration. A single dose was administered via oral gavage.
Blood Sampling Time Points: Blood samples were collected from the tail vein before administration and at 0.25, 0.5, 1, 2, 4, 6, 8, and 24 hours post-administration. A volume of 100 µL of blood was collected at each time point.
Sample Processing and Storage: The blood samples were transferred into 1.5 mL microcentrifuge tubes, with 50 µL per tube (two tubes per sample). Centrifugation was completed within 2 hours. Whole blood samples were kept on ice prior to centrifugation. Centrifugation was performed at 4000 rpm, 2-8°C, for 10 minutes. After collecting the supernatant, it was stored at -80°C or below if not analyzed immediately.
Column: An InfinityLab Poroshell 120 SB-C18 column (2.1 × 100 mm, 2.7 µm) was used. Column Temperature: The temperature was maintained at 30°C. Flow Rate: The flow rate was set at 0.3 mL/min. Run Time: The total run time was 9.5 minutes. Post-run Time: A post-run time of 2 minutes was applied. Injection Volume: An injection volume of 2 µL was used. Mobile Phase: A mixture of methanol and 0.1% formic acid was employed as the mobile phase. Gradient Elution: Gradient elution was performed according to the table below.
Blood Sample Processing: 50 µL of plasma sample was aliquoted, and 25 µL of internal standard solution was added. The mixture was vortexed for 30 seconds. Then, 175 µL of methanol was added to precipitate proteins, and the mixture was vortexed again. The samples were centrifuged at 12,000 rpm for 10 minutes. Subsequently, 100 µL of the supernatant was collected and mixed with 300 µL of water. The final supernatant was injected for analysis.

| Structure (SMILES) | EC50 (human CaSR) | The reduction efficiency (%) [1] | half-life [2] | bioavailability [3] | AUC(0-inf) [3] | Cmax [3] | Tmax [3] | half-life [3] |
| --- | --- | --- | --- | --- | --- | --- | --- | --- |
| Cc1cc(CC(=O)O)ccc1N1CC[C@H](N[C@H](C)c2cccc3ccccc23)C1 [Compound 3, 2-(3-methyl-4-((S)-3-(((R)-1-(naphthalen-1-yl)ethyl)amino)pyrrolidin-1-yl)phenyl)acetic acid] | 20.7 nM | 93% | > 1 h | 144% | 36600 ± 1970 ng·h/mL | 3770 ± 584 ng/mL | 0.55 ± 0.27 h | 5.17 ± 0.38 h |
| COc1cc(N2CC[C@H](N[C@H](C)c3cccc4ccccc34)C2)ccc1CC(=O)O [Compound 7, 2-(2-methoxy-4-((S)-3-(((R)-1-(naphthalen-1-yl)ethyl)amino)pyrrolidin-1-yl)phenyl)acetic acid] | 55.5 nM | – | – | – | – | – | – | – |
| C[C@@H](N[C@H]1CCN(c2ccc(CC(=O)O)cc2F)C1)c1cccc2ccccc12 [Compound 2, 2-(3-fluoro-4-((S)-3-(((R)-1-(naphthalen-1-yl)ethyl)amino)pyrrolidin-1-yl)phenyl)acetic acid] | 27.1 nM | 91% | > 1 h | 136% | 34700 ± 2710 ng·h/mL | 3550 ± 283 ng/mL | 0.65 ± 0.34 h | 5.91 ± 0.21 h |
| C[C@@H](N[C@H]1CCN(c2ccc(CC(=O)O)c(F)c2)C1)c1cccc2ccccc12 [Compound 1, 2-(2-fluoro-4-((S)-3-(((R)-1-(naphthalen-1-yl)ethyl)amino)pyrrolidin-1-yl)phenyl)acetic acid] | 39.7 nM | – | – | – | – | – | – | – |
| C[C@@H](N[C@H]1CCN(c2ccc(CC(=O)O)cc2)C1)c1cccc2ccccc12 [Evocalcet, reference compound] | 67.6 nM | – | > 1 h | 100% | 25400 ± 7360 ng·h/mL | 2520 ± 212 ng/mL | 1.15 ± 1.6 h | 4.83 ± 0.39 h |
| C[C@@H](N[C@H]1CCN(c2cc(F)c(CC(=O)O)c(F)c2)C1)c1cccc2ccccc12 [Compound 5, 2-(2,6-difluoro-4-((S)-3-(((R)-1-(naphthalen-1-yl)ethyl)amino)pyrrolidin-1-yl)phenyl)acetic acid] | 39.8 nM | 81% | > 1 h | – | – | – | – | – |
| COc1cc(CC(=O)O)ccc1N1CC[C@H](N[C@H](C)c2cccc3ccccc23)C1 [Compound 6, 2-(3-methoxy-4-((S)-3-(((R)-1-(naphthalen-1-yl)ethyl)amino)pyrrolidin-1-yl)phenyl)acetic acid] | 42.5 nM | – | – | – | – | – | – | – |
| Cc1cc(N2CC[C@H](N[C@H](C)c3cccc4ccccc34)C2)ccc1CC(=O)O [Compound 4, 2-(2-methyl-4-((S)-3-(((R)-1-(naphthalen-1-yl)ethyl)amino)pyrrolidin-1-yl)phenyl)acetic acid] | 52 nM | – | – | – | – | – | – | – |
